Laboratory results taken from patent US20080299592A1, “Red-Shifted Luciferase” (priority 2007, published 2008).
“Also recorded” adds a separate entry of the source. Each block holds one molecule with its values, some of them ahead of it.

How the values were obtained:
[1] = tested on: tetracysteine-tagged protein; test: Binding/labeling of tetracysteine-tagged protein by bis-arsenical dyes (MALDI-MS); conditions: for binding to tetracysteine-tagged protein: MALDI-MS, canonical tetracysteine tag
[2] = tested on: HeLa cells; test: Intracellular staining of mammalian tissue culture cells (HeLa) with bis-arsenical dyes; format: cell-based; conditions: absence of tetracysteine-tagged proteins and thiol competitors
[3] = tested on: mice; conditions: cited from earlier work
[4] = molecular target: tetracysteine tag; conditions: FlAsH / tetracysteine tag; Adams et al. 2002; read-out: dissociation constant; cited from earlier work
[5] = tested on: tetracysteine-tagged firefly luciferase; test: BRET from tetracysteine-tagged firefly luciferase constructs to ReAsH; format: biochemical; conditions: for BRET: to ReAsH, purified TC-tagged luciferase constructs, Table 1; for efficiency of BRET (apparent): treatment with ReAsH
Description: Firefly luciferase fusion proteins with an optimized tetracysteine (TC) tag ([…]; SEQ ID NO:1) (Martin et al., Nature Biotechnology, 2005, 23:1308-14) fused onto either the amino (TCLuc1) or carboxy (TCLuc2) terminus of the luciferase protein (Promega's pGL3 (GenBank No. U47295.2)) were cloned and expressed (see list in Table 1). The proteins were expressed in E. Coli as GST fusions, purified by glutathione agarose affinity chromatography, and eluted as the TC-tagged protein by cleavage with PreScission™ protease.
The emission spectrum is sharpened, such that the maximum at 608 nm is actually higher than the 560 nm peak of luciferase (FIG. 3).
To help evaluate the role of distance and orientation on the BRET efficiency, additional N-terminal fusions of the TC tag were constructed (Table 1). […] The best-performing TCLuc1 fusion was cloned into pcDNA3.1 for expression in mammalian tissue culture cells. This construct lacks a C-terminal peroxisomal targeting sequence, and thus the expressed luciferase will localize to the cytoplasm.

Molecule: O=c1ccc2nc3ccc(O)c([As]4SCCS4)c3oc-2c1[As]1SCCS1 [ReAsH, reference compound]
binding to tetracysteine-tagged protein [1]: binding
intracellular staining [2]: bright intracellular staining

Molecule: Nc1ccc([As](=O)(O)O)cc1 [arsanilic acid]
LD50 ([3]; mice): 248 mg/kg

Molecule: CN(Cc1cnc2nc(N)nc(N)c2n1)c1ccc(C(=O)N[C@@H](CCC(=O)O)C(=O)O)cc1 [methotrexate]
LD50 relative to melarsonyl ([3]; mouse, in vivo): two-fold lower LD50 than melarsonyl

Molecule: FlAsH [reference compound]
binding to tetracysteine-tagged protein [1]: binding
Kd [4]: ~4 pM
intracellular staining [2]: bright intracellular staining

Molecule: bis-arsenical oxazine 170 [As2Ox170]
fluorescent labeling of tetracysteine-tagged proteins [1]: fails to fluorescently label
binding to tetracysteine-tagged protein [1]: fails to bind; also recorded: lack of binding
intracellular staining [2]: intracellular staining; also recorded: highly fluorescent within cells

Now from value to molecule:

BRET [5]: inactive
efficiency of BRET (apparent) [5]: complete loss of luciferase activity
B1: TCLuc5: N-terminal TC-tagged Δ2-luciferase, truncated, SEQ ID NO:6 (protein)
chain: GPLGSFLNCCPGCCDAKNIKKGPAPFYPLEDGTAGEQLHKAMKRYALVPGTIAFTDAHIEVDITYAEYFEMSVRLAEAMKRYGLNTNHRIVVCSENSLQFFMPVLGALFIGVAVAPANDIYNERELLNSMGISQPTVVFVSKKGLQKILNVQKKLPIIQKIIIMDSKTDYQGFQSMYTFVTSHLPPGFNEYDFVPESFDRDKTIALIMNSSGSTGLPKGVALPHRTACVRFSHARDPIFGNQIIPDTAILSVVPFHHGFGMFTTLGYLICGFRVVLMYRFEEELFLRSLQDYKIQSALLVPTLFSFFAKSTLIDKYDLSNLHEIASGGAPLSKEVGEAVAKRFHLPGIRQGYGLTETTSAILITPEGDDKPGAVGKVVPFFEAKVVDLDTGKTLGVNQRGELCVRGPMIMSGYVNNPEATNALIDKDGWLHSGDIAYWDEDEHFFIVDRLKSLIKYKGYQVAPAELESILLQHPNIFDAGVAGLPDDDAGELPAAVVVLEHGKTMTEKEIVDYVASQVTTAKKLRGGVVFVDEVPKGLTGKLDARKIREILIKAKKGGKIAV

BRET [5]: quenches
efficiency of BRET (apparent) [5]: quenching of luciferase emission
B2: TCLuc4: N-terminal TC-tagged luciferase with truncated amino acids between tag and luciferase, SEQ ID NO:5 (protein)
chain: GPLGSFLNCCPGCCMEDAKNIKKGPAPFYPLEDGTAGEQLHKAMKRYALVPGTIAFTDAHIEVDITYAEYFEMSVRLAEAMKRYGLNTNHRIVVCSENSLQFFMPVLGALFIGVAVAPANDIYNERELLNSMGISQPTVVFVSKKGLQKILNVQKKLPIIQKIIIMDSKTDYQGFQSMYTFVTSHLPPGFNEYDFVPESFDRDKTIALIMNSSGSTGLPKGVALPHRTACVRFSHARDPIFGNQIIPDTAILSVVPFHHGFGMFTTLGYLICGFRVVLMYRFEEELFLRSLQDYKIQSALLVPTLFSFFAKSTLIDKYDLSNLHEIASGGAPLSKEVGEAVAKRFHLPGIRQGYGLTETTSAILITPEGDDKPGAVGKVVPFFEAKVVDLDTGKTLGVNQRGELCVRGPMIMSGYVNNPEATNALIDKDGWLHSGDIAYWDEDEHFFIVDRLKSLIKYKGYQVAPAELESILLQHPNIFDAGVAGLPDDDAGELPAAVVVLEHGKTMTEKEIVDYVASQVTTAKKLRGGVVFVDEVPKGLTGKLDARKIREILIKAKKGGKIAV

BRET [5]: ~50%
efficiency of BRET (apparent) [5]: about 50%
B3: TCLuc2: Firefly luciferase with optimized tetracysteine tag fused at the carboxy terminus, SEQ ID NO:3 (protein)
chain: GPLGSMEDAKNIKKGPAPFYPLEDGTAGEQLHKAMKRYALVPGTIAFTDAHIEVDITYAEYFEMSVRLAEAMKRYGLNTNHRIVVCSENSLQFFMPVLGALFIGVAVAPANDIYNERELLNSMGISQPTVVFVSKKGLQKILNVQKKLPIIQKIIIMDSKTDYQGFQSMYTFVTSHLPPGFNEYDFVPESFDRDKTIALIMNSSGSTGLPKGVALPHRTACVRFSHARDPIFGNQIIPDTAILSVVPFHHGFGMFTTLGYLICGFRVVLMYRFEEELFLRSLQDYKIQSALLVPTLFSFFAKSTLIDKYDLSNLHEIASGGAPLSKEVGEAVAKRFHLPGIRQGYGLTETTSAILITPEGDDKPGAVGKVVPFFEAKVVDLDTGKTLGVNQRGELCVRGPMIMSGYVNNPEATNALIDKDGWLHSGDIAYWDEDEHFFIVDRLKSLIKYKGYQVAPAELESILLQHPNIFDAGVAGLPDDDAGELPAAVVVLEHGKTMTEKEIVDYVASQVTTAKKLRGGVVFVDEVPKGLTGKLDARKIREILIKAKKGGKIAVFLNCCPGCCMEP

BRET [5]: ~50%
efficiency of BRET (apparent) [5]: about 50%
B4: TCLuc3: N-terminal TC-tagged luciferase with flexible (Gly-Ser)3 repeat spacer, SEQ ID NO:4 (protein)
chain: GPLGSFLNCCPGCCMEPGSGSGSGSMEDAKNIKKGPAPFYPLEDGTAGEQLHKAMKRYALVPGTIAFTDAHIEVDITYAEYFEMSVRLAEAMKRYGLNTNHRIVVCSENSLQFFMPVLGALFIGVAVAPANDIYNERELLNSMGISQPTVVFVSKKGLQKILNVQKKLPIIQKIIIMDSKTDYQGFQSMYTFVTSHLPPGFNEYDFVPESFDRDKTIALIMNSSGSTGLPKGVALPHRTACVRFSHARDPIFGNQIIPDTAILSVVPFHHGFGMFTTLGYLICGFRVVLMYRFEEELFLRSLQDYKIQSALLVPTLFSFFAKSTLIDKYDLSNLHEIASGGAPLSKEVGEAVAKRFHLPGIRQGYGLTETTSAILITPEGDDKPGAVGKVVPFFEAKVVDLDTGKTLGVNQRGELCVRGPMIMSGYVNNPEATNALIDKDGWLHSGDIAYWDEDEHFFIVDRLKSLIKYKGYQVAPAELESILLQHPNIFDAGVAGLPDDDAGELPAAVVVLEHGKTMTEKEIVDYVASQVTTAKKLRGGVVFVDEVPKGLTGKLDARKIREILIKAKKGGKIAV

BRET [5]: ~80%
efficiency of BRET (apparent) [5]: about 80%
B5: TCLuc1: Firefly luciferase with optimized tetracysteine tag fused at the amino terminus, SEQ ID NO:2 (protein)
chain: GPLGSFLNCCPGCCMEPGSMEDAKNIKKGPAPFYPLEDGTAGEQLHKAMKRYALVPGTIAFTDAHIEVDITYAEYFEMSVRLAEAMKRYGLNTNHRIVVCSENSLQFFMPVLGALFIGVAVAPANDIYNERELLNSMGISQPTVVFVSKKGLQKILNVQKKLPIIQKIIIMDSKTDYQGFQSMYTFVTSHLPPGFNEYDFVPESFDRDKTIALIMNSSGSTGLPKGVALPHRTACVRFSHARDPIFGNQIIPDTAILSVVPFHHGFGMFTTLGYLICGFRVVLMYRFEEELFLRSLQDYKIQSALLVPTLFSFFAKSTLIDKYDLSNLHEIASGGAPLSKEVGEAVAKRFHLPGIRQGYGLTETTSAILITPEGDDKPGAVGKVVPFFEAKVVDLDTGKTLGVNQRGELCVRGPMIMSGYVNNPEATNALIDKDGWLHSGDIAYWDEDEHFFIVDRLKSLIKYKGYQVAPAELESILLQHPNIFDAGVAGLPDDDAGELPAAVVVLEHGKTMTEKEIVDYVASQVTTAKKLRGGVVFVDEVPKGLTGKLDARKIREILIKAKKGGKIAV
